Where two headings read alike, the source gives them in different places.
Columns and labels:
[1] = log P by HPLC (EEC Directive 79/831 Annex V.A8); type: physicochemical
Phytophthora infestans = type: in vivo; conditions: protective, young tomato plants, active ingredient concentration 500 ppm, evaluation 7 days after inoculation
[2] = [b] LC-MS, acidic range, pH 2.7, 0.1% aqueous formic acid and acetonitrile
[3] = [c] LC-MS, neutral range, pH 7.8, 0.001 molar aqueous ammonium hydrogencarbonate and acetonitrile
[4] = [a] HPLC, acidic range, pH 2.3, 0.1% aqueous phosphoric acid and acetonitrile
[5] = HPLC (LC-MS), [b] LC-MS, acidic range, pH 2.7, 0.1% aqueous formic acid and acetonitrile, read-out: log P
[6] = HPLC, pH 2.7, given in the preparation examples, read-out: logP (pH2.7)

SMILES | log P [1, 2] | log P [1, 3] | log P [1, 4] | other results
Cc1cc(C(F)(F)F)nn1CC(=O)N1CCN(c2cccc(C(=O)N(C)Cc3ccccc3Br)n2)CC1 [Example 3] | 3.44 | 3.46 | – | efficacy (Phytophthora infestans): 88%
Cc1cc(C(F)(F)F)nn1CC(=O)N1CCN(c2cccc(C(=O)OC3C=CCCC3)n2)CC1 (stereo not drawn) [Example 68] | 3.67 | 3.7 | – | efficacy (Phytophthora infestans): 94%
Cc1cc(C(F)(F)F)nn1CC(=O)N1CCN(c2cccc(C(=O)OC3CCCCC3)n2)CC1 [Example 69] | 3.96 | – | – | efficacy (Phytophthora infestans): 71%
Cc1cc(C(F)(F)F)nn1CC(=O)N1CCN(c2cccc(C(=O)OC3CCCc4ccccc43)n2)CC1 (stereo not drawn) [Example 70] | 4.19 | 4.2 | – | efficacy (Phytophthora infestans): 97%
C=CCCCCOC(=O)c1cccc(N2CCN(C(=O)Cn3nc(C(F)(F)F)cc3C)CC2)n1 [Example 71] | – | 3.95 | – | efficacy (Phytophthora infestans): 76%
O=C(SCc1c(F)cccc1F)c1cccc(C2CCN(C(=O)Cn3nc(C(F)F)cc3C(F)F)CC2)n1 [Example 113] | – | 4.13 | 4.12 | –
O=C(Sc1cccc2ccccc12)c1cccc(C2CCN(C(=O)Cn3nc(C(F)F)cc3C(F)F)CC2)n1 [Example 114] | – | 4.42 | 4.4 | –
O=C(OC1CCCCC1F)c1cccc(C2CCN(C(=O)Cn3nc(C(F)F)cc3C(F)F)CC2)n1 (stereo not drawn) [Example 115] | 3.37^[b] | – | – | –
Cc1cc(C(F)(F)F)nn1CC(=O)N1CCC(c2cccc(C(=O)OC3CCCCC3F)n2)CC1 (stereo not drawn) [Example 116] | 3.43^[b] | – | – | –
O=C(OC1CCCCC1)c1cccc(N2CCN(C(=O)Cn3nc(C(F)F)cc3C(F)F)CC2)n1 [Example 119] | – | 4.65 | 4.61 | –
O=C(Sc1ccccc1)c1cccc(C2CCN(C(=O)Cn3nc(C(F)F)cc3C(F)F)CC2)n1 [Example 121] | – | 3.85 | 3.8 | –
O=C(Sc1ccccc1)c1cccc(N2CCN(C(=O)Cn3nc(C(F)F)cc3C(F)F)CC2)n1 [Example 122] | – | 3.81 | 3.79 | –
O=C(Sc1cccs1)c1cccc(N2CCN(C(=O)Cn3nc(C(F)F)cc3C(F)F)CC2)n1 [Example 124] | – | 3.75 | 3.73 | –
O=C(SCc1c(F)cccc1F)c1cccc(N2CCN(C(=O)Cn3nc(C(F)F)cc3C(F)F)CC2)n1 [Example 125] | – | 4.14 | 4.11 | –
O=C(SCc1ccccc1Cl)c1cccc(C2CCN(C(=O)Cn3nc(C(F)F)cc3C(F)F)CC2)n1 [Example 126] | – | 4.49 | 4.44 | –
O=C(SCc1ccccc1Cl)c1cccc(N2CCN(C(=O)Cn3nc(C(F)F)cc3C(F)F)CC2)n1 [Example 127] | – | 4.44 | 4.42 | –
O=C(SCc1ccc(F)cc1)c1cccc(C2CCN(C(=O)Cn3nc(C(F)F)cc3C(F)F)CC2)n1 [Example 128] | – | 4.15 | 4.1 | –
CCCCCCCSC(=O)c1cccc(C2CCN(C(=O)Cn3nc(C(F)F)cc3C(F)F)CC2)n1 [Example 129] | – | 5.44 | 5.43 | –

SMILES | log P [1, 2] | log P [1, 3] | log P [1, 4] | other results
CCCCCCCSC(=O)c1cccc(N2CCN(C(=O)Cn3nc(C(F)F)cc3C(F)F)CC2)n1 [Example 130] | – | 5.38 | 5.4 | –
CCOC(=O)c1cccc(C2CCN(C(=O)Cn3nc(C(F)F)cc3C(F)F)CC2)n1 [Example 131, Ethyl 6-(1-{[3,5-bis(difluoromethyl)-1H-pyrazol-1-yl]acetyl}piperidin-4-yl)pyridine-2-carboxylate] | – | – | – | chromatographic logP [1, 5]: 2.68; chromatographic logP [1, 6]: 2.68
CCOC(=O)c1cccc(C2CCN(C(=O)Cn3nc(C(F)(F)F)cc3C)CC2)n1 [Example 132] | 2.73^[b] | – | – | –
Cc1ccccc1CSC(=O)c1cccc(C2CCN(C(=O)Cn3nc(C(F)F)cc3C(F)F)CC2)n1 [Example 133] | – | 4.41 | 4.39 | –
CCOC(=O)c1cccc(C2CCN(C(=O)Cn3nc(C(F)(F)F)cc3C)CC2)n1 [Example 134] | 2.74^[b] | – | – | –
O=C(O)c1cccc(C2CCN(C(=O)Cn3nc(C(F)F)cc3C(F)F)CC2)n1 [Example 135, 6-(1-{[3,5-Bis(difluoromethyl)-1H-pyrazol-1-yl]acetyl}piperidin-4-yl)pyridine-2-carboxylic acid] | – | – | – | chromatographic logP [1, 5]: 1.55; chromatographic logP [1, 6]: 1.55
O=C(Oc1cccc2c1CCCC2)c1cccc(N2CCN(C(=O)Cn3nc(C(F)F)cc3C(F)F)CC2)n1 [Example 139] | – | 4.29 | 4.25 | –
O=C(NCc1ccc(Cl)cc1Cl)c1cccc(N2CCN(C(=O)Cn3nc(C(F)F)cc3C(F)F)CC2)n1 [Example 144] | – | 3.7 | 3.68 | –
Cc1ccccc1CSC(=O)c1cccc(N2CCN(C(=O)Cn3nc(C(F)(F)F)cc3C)CC2)n1 [Example 145] | 4.52 | 4.55 | – | –
O=C(NCc1ccccc1Cl)c1cccc(N2CCN(C(=O)Cn3nc(C(F)F)cc3C(F)F)CC2)n1 [Example 146] | – | 3.26 | 3.24 | –
Cc1cc(C(F)(F)F)nn1CC(=O)N1CCN(c2cccc(C(=O)N(C)C3CCCc4ccccc43)n2)CC1 (stereo not drawn) [Example 147] | 3.55 | 3.59 | – | –
CN(Cc1ccccc1Cl)C(=O)c1cccc(N2CCN(C(=O)Cn3nc(C(F)F)cc3C(F)F)CC2)n1 [Example 148] | – | 3.25 | 3.22 | –
Cc1cc(C(F)(F)F)nn1CC(=O)N1CCN(c2cccc(C(=O)SCc3c(F)cccc3F)n2)CC1 [Example 149] | 4.11 | 4.29 | – | –
CC(C)(C)OC(=O)N1CCC(O)(c2cccc(Br)n2)CC1 [tert-Butyl 4-(6-bromopyridin-2-yl)-4-hydroxypiperidine-1-carboxylate] | – | – | – | chromatographic logP [1, 6]: 3.05
CC(C)(C)OC(=O)N1CCN(c2cccc(Br)n2)CC1 [tert-Butyl 4-(6-bromopyridin-2-yl)piperazine-1-carboxylate] | – | – | – | chromatographic logP [1, 6]: 4.08
CCOC(=O)c1cccc(N2CCN(C(=O)OC(C)(C)C)CC2)n1 [tert-Butyl 4-[6-(ethoxycarbonyl)pyridin-2-yl]piperazine-1-carboxylate] | – | – | – | chromatographic logP [1, 6]: 3.32
CC(C)(C)OC(=O)N1CC=C(c2cccc(Br)n2)CC1 [tert-Butyl 6-bromo-3′,6′-dihydro-2,4′-bipyridine-1′(2′H)-carboxylate] | – | – | – | chromatographic logP [1, 6]: 4.14
CN(C(=O)c1cccc(C2CCN(C(=O)OC(C)(C)C)CC2)n1)C1CCCc2ccccc21 (stereo not drawn) [tert-butyl 4-{6-[methyl(1,2,3,4-tetrahydronaphthalen-1-yl)carbamoyl]pyridin-2-yl}piperidine-1-carboxylate] | – | – | – | chromatographic logP [1, 6]: 5.09

Reference: patent US8604040B2 (priority 2010, dated 2013)
